ChEMBL document CHEMBL1152576, “E-Combretastatin and E-resveratrol structural modifications: antimicrobial and cancer cell growth inhibitory beta-E-nitrostyrenes” (Bioorg Med Chem, 2009)
In brackets after ≈: the same amount, converted by molar mass. Activity calls are given as the source filed them. The calls are words filed in the database; no cut-off is given here.

What was measured:
Enterobacter cloacae [1] = experiment: Antimicrobial activity against Enterobacter cloacae ATCC 13047 by broth microdilution susceptibility assay; assay type: functional
Streptococcus pneumoniae [2] = experiment: Antimicrobial activity against Streptococcus pneumoniae ATCC 6303 after 24 hrs by broth microdilution susceptibility assay; assay type: functional; conditions: ATCC 6303, 24 h
MCF7 = experiment: Cytotoxicity against human MCF7 cells after 48 hrs by sulforhodamine B assay; assay type: functional; conditions: MCF7, 48 h
KM-20L2 = experiment: Cytotoxicity against human KM20L2 cells after 48 hrs by sulforhodamine B assay; assay type: functional; conditions: KM-20L2, 48 h
Staphylococcus aureus [3] = experiment: Antimicrobial activity against Staphylococcus aureus ATCC 29213 by broth microdilution susceptibility assay; assay type: functional
[4] = Inhibition of tubulin polymerization
[5] = system: Stenotrophomonas maltophilia; experiment: Antimicrobial activity against Stenotrophomonas maltophilia ATCC 13637 by broth microdilution susceptibility assay; assay type: functional
Escherichia coli [6] = experiment: Antimicrobial activity against Escherichia coli ATCC 25922 by broth microdilution susceptibility assay; assay type: functional
Streptococcus pneumoniae [7] = experiment: Antimicrobial activity against Streptococcus pneumoniae ATCC 6303 by broth microdilution susceptibility assay; assay type: functional
Micrococcus luteus [8] = experiment: Antimicrobial activity against Micrococcus luteus Presque Isle 456 assessed clear zone in inhibition per disk by CLSI disk diffusion susceptibility assay; assay type: functional
Enterobacter cloacae [9] = experiment: Antimicrobial activity against Enterobacter cloacae ATCC 13047 after 24 hrs by broth microdilution susceptibility assay; assay type: functional; conditions: ATCC 13047, 24 h
[10] = system: Stenotrophomonas maltophilia; experiment: Antimicrobial activity against Stenotrophomonas maltophilia ATCC 13637 after 24 hrs by broth microdilution susceptibility assay; assay type: functional; conditions: ATCC 13637, 24 h
Enterobacter cloacae [11] = experiment: Antimicrobial activity against Enterobacter cloacae ATCC 13047 assessed clear zone in inhibition per disk by CLSI disk diffusion susceptibility assay; assay type: functional
SK-MEL-5 = experiment: Cytotoxicity against human SK-MEL-5 cells after 48 hrs by sulforhodamine B assay; assay type: functional
Micrococcus luteus [12] = experiment: Antimicrobial activity against Micrococcus luteus Presque Isle 456 by broth microdilution susceptibility assay; assay type: functional
Streptococcus pneumoniae [13] = experiment: Antimicrobial activity against Streptococcus pneumoniae ATCC 6303 assessed clear zone in inhibition per disk by CLSI disk diffusion susceptibility assay; assay type: functional
Candida albicans [14] = experiment: Antifungal activity against Candida albicans ATCC 90028 after 48 hrs by broth microdilution susceptibility assay; assay type: functional; conditions: ATCC 90028, 48 h
Staphylococcus aureus [15] = experiment: Antimicrobial activity against Staphylococcus aureus ATCC 29213 assessed clear zone in inhibition per disk by CLSI disk diffusion susceptibility assay; assay type: functional
Escherichia coli [16] = experiment: Antimicrobial activity against Escherichia coli ATCC 25922 assessed clear zone in inhibition per disk by CLSI disk diffusion susceptibility assay; assay type: functional
P388 = experiment: Cytotoxicity against mouse P388 cells after 48 hrs by sulforhodamine B assay; assay type: functional; conditions: P388, 48 h, read-out: ED50 (the source's name)
NCI-H460 = experiment: Cytotoxicity against human NCI-H460 cells after 48 hrs by sulforhodamine B assay; assay type: functional; conditions: NCI-H460, 48 h
Candida albicans [17] = experiment: Antifungal activity against Candida albicans ATCC 90028 after 24 hrs by broth microdilution susceptibility assay; assay type: functional; conditions: ATCC 90028, 24 h
DU-145 = experiment: Cytotoxicity against human DU145 cells after 48 hrs by sulforhodamine B assay; assay type: functional; conditions: DU-145, 48 h
Neisseria gonorrhoeae [18] = experiment: Antimicrobial activity against Neisseria gonorrhoeae ATCC 49226 by broth microdilution susceptibility assay; assay type: functional
SF-295 = experiment: Cytotoxicity against human SF295 cells after 48 hrs by sulforhodamine B assay; assay type: functional; conditions: SF-295, 48 h
Enterococcus faecalis [19] = experiment: Antimicrobial activity against Enterococcus faecalis ATCC 29212 assessed clear zone in inhibition per disk by CLSI disk diffusion susceptibility assay; assay type: functional
Staphylococcus aureus [20] = experiment: Antimicrobial activity against Staphylococcus aureus ATCC 29213 after 24 hrs by broth microdilution susceptibility assay; assay type: functional; conditions: ATCC 29213, 24 h
Enterococcus faecalis [21] = experiment: Antimicrobial activity against Enterococcus faecalis ATCC 29212 by broth microdilution susceptibility assay; assay type: functional
Candida albicans [22] = experiment: Antimicrobial activity against Candida albicans ATCC 90028 assessed clear zone in inhibition per disk by CLSI disk diffusion susceptibility assay; assay type: functional
OVCAR-3 = experiment: Cytotoxicity against human OVCAR-3 cells after 48 hrs by sulforhodamine B assay; assay type: functional
Cryptococcus neoformans [23] = experiment: Antifungal activity against Cryptococcus neoformans ATCC 90112 after 72 hrs by broth microdilution susceptibility assay; assay type: functional; conditions: ATCC 90112, 72 h
BXPC-3 = experiment: Cytotoxicity against human BxPC3 cells after 48 hrs by sulforhodamine B assay; assay type: functional; conditions: BXPC-3, 48 h
Enterococcus faecalis [24] = experiment: Antimicrobial activity against Enterococcus faecalis ATCC 29212 after 24 hrs by broth microdilution susceptibility assay; assay type: functional; conditions: ATCC 29212, 24 h
Cryptococcus neoformans [25] = experiment: Antimicrobial activity against Cryptococcus neoformans ATCC 90112 assessed clear zone in inhibition per disk by CLSI disk diffusion susceptibility assay; assay type: functional
SF-268 = experiment: Cytotoxicity against human SF268 cells after 48 hrs by sulforhodamine B assay; assay type: functional
Neisseria gonorrhoeae [26] = experiment: Antimicrobial activity against Neisseria gonorrhoeae ATCC 49226 after 24 hrs by broth microdilution susceptibility assay; assay type: functional; conditions: ATCC 49226, 24 h
Neisseria gonorrhoeae [27] = experiment: Antimicrobial activity against Neisseria gonorrhoeae ATCC 49226 assessed clear zone of inhibition measured per disk by CLSI disk diffusion susceptibility assay; assay type: functional
[28] = system: Stenotrophomonas maltophilia; experiment: Antimicrobial activity against Stenotrophomonas maltophilia ATCC 13637 assessed clear zone in inhibition per disk by CLSI disk diffusion susceptibility assay; assay type: functional
Escherichia coli [29] = experiment: Antimicrobial activity against Escherichia coli ATCC 25922 after 24 hrs by broth microdilution susceptibility assay; assay type: functional; conditions: ATCC 25922, 24 h
A498 = experiment: Cytotoxicity against human A498 cells after 48 hrs by sulforhodamine B assay; assay type: functional

## COc1ccccc1/C=C/[N+](=O)[O-]
Enterobacter cloacae [1]
  MIC: 64 µg/mL (≈ 357 µM)
Streptococcus pneumoniae [2]
  MBC: > 64 µg/mL
MCF7
  GI50: 0.48 µg/mL (≈ 2.68 µM)
KM-20L2
  GI50: 1.5 µg/mL (≈ 8.37 µM)
Staphylococcus aureus [3]
  MIC: 64 µg/mL (≈ 357 µM)
[4]
  IC50: 7.4 µM
[5]
  MIC: 32 µg/mL (≈ 179 µM)
Escherichia coli [6]
  MIC: 64 µg/mL (≈ 357 µM)
Streptococcus pneumoniae [7]
  MIC: 64 µg/mL (≈ 357 µM)
Micrococcus luteus [8]
  MIC: >100 µg
Enterobacter cloacae [9]
  MBC: > 64 µg/mL
[10]
  MBC: 64 µg/mL (≈ 357 µM)
Enterobacter cloacae [11]
  MIC: 25 µg
SK-MEL-5
  GI50: inactive
Micrococcus luteus [12]
  MIC: > 64 µg/mL
Streptococcus pneumoniae [13]
  MIC: 25 µg
Candida albicans [14]
  MIC: 8 µg/mL (≈ 44.6 µM)
Staphylococcus aureus [15]
  MIC: 6.25 µg
Escherichia coli [16]
  MIC: 50 µg
P388
  EC50: 0.51 µg/mL (≈ 2.85 µM)
NCI-H460
  GI50: 1.7 µg/mL (≈ 9.49 µM)
Candida albicans [17]
  MFC: 16 µg/mL (≈ 89.3 µM)
DU-145
  GI50: 1.5 µg/mL (≈ 8.37 µM)
Neisseria gonorrhoeae [18]
  MIC: 2 µg/mL (≈ 11.2 µM)
SF-295
  GI50: 1.7 µg/mL (≈ 9.49 µM)
Enterococcus faecalis [19]
  MIC: 0.78 µg
Staphylococcus aureus [20]
  MBC: > 64 µg/mL
Enterococcus faecalis [21]
  MIC: 64 µg/mL (≈ 357 µM)
Candida albicans [22]
  MIC: 1.56 µg
OVCAR-3
  GI50: inactive
Cryptococcus neoformans [23]
  MIC: > 64 µg/mL
BXPC-3
  GI50: 1.6 µg/mL (≈ 8.93 µM)
Enterococcus faecalis [24]
  MBC: > 64 µg/mL
Cryptococcus neoformans [25]
  MIC: 0.78 µg
SF-268
  GI50: inactive
Neisseria gonorrhoeae [26]
  MBC: 2 µg/mL (≈ 11.2 µM)
Neisseria gonorrhoeae [27]
  MIC: 0.78 µg
[28]
  MIC: 12.5 µg
Escherichia coli [29]
  MBC: 64 µg/mL (≈ 357 µM)
A498
  GI50: inactive
